According to US11760722B2 (priority 2022, dated 2023):
pEC50: −log10 of the molar value. “And” between values parts separate entries of the source, which are not always exact repeats. Identical values can stand only once. Like-named read-outs stand apart in the source and are kept apart here.

Legend:
[1] = system: SARS-CoV-2 replicon; test: microbe, parasite or virus in culture; assay type: cell-based
[2] = system: human coronavirus (HCoV) 229E; test: microbe, parasite or virus in culture; assay type: cell-based, human coronavirus 229E; conditions: MRCS cells, HCoV 229E, 3 days, CellTiter Glo, read-out: 229E CPE EC50
[3] = Severe acute respiratory syndrome coronavirus 2, Huh-7, 24 h; read-out: Replicon EC50
[4] = unidentified human coronavirus, 72 h

Compound	pEC50 [1, 3]	pEC50 [2, 4]	other results
CCCc1ccc(S(=O)(=O)N[C@H](C(=O)N2C[C@H]3[C@@H]([C@H]2C(=O)N[C@H](C#N)C[C@@H]2CCNC2=O)C3(C)C)C(C)(C)C)s1 [Compound 171]	7.54		
CC(C)(C)[C@H](NS(=O)(=O)c1cccs1)C(=O)N1C[C@H]2[C@@H]([C@H]1C(=O)N[C@H](C#N)C[C@@H]1CCNC1=O)C2(C)C [Compound 100]		6.36	pEC50 [2]: 6.20
Cc1ccc(S(=O)(=O)N[C@H](C(=O)N2C[C@H]3[C@@H]([C@H]2C(=O)N[C@H](C#N)C[C@@H]2CCNC2=O)C3(C)C)C(C)(C)C)s1 [Compound 118]		6.49	
C=CC(=O)N[C@H](C(=O)N1C[C@H]2[C@@H]([C@H]1C(=O)N[C@H](C#N)C[C@@H]1CCNC1=O)C2(C)C)C(C)(C)C [Compound 61]	5.56		
CC(C)(C)[C@H](NS(=O)(=O)N1CCOCC1)C(=O)N1C[C@H]2[C@@H]([C@H]1C(=O)N[C@H](C#N)C[C@@H]1CCNC1=O)C2(C)C [Compound 49]		5.41	pEC50 [2]: 5.24
CC1(C(=O)N[C@H](C(=O)N2C[C@H]3[C@@H]([C@H]2C(=O)N[C@H](C#N)C[C@@H]2CCNC2=O)C3(C)C)C(C)(C)C)CCCN1 (stereo partly drawn) [Compound 65]	4.73		
CCOc1ccccc1S(=O)(=O)N[C@H](C(=O)N1C[C@H]2[C@@H]([C@H]1C(=O)N[C@H](C#N)C[C@@H]1CCNC1=O)C2(C)C)C(C)(C)C [Compound 143]	7.19		pEC50 ([1]; read-out: Replicon EC50): 6.89
CC(C)(C)[C@H](NC(=O)C(F)(F)C(F)(F)C(F)(F)C(F)(F)F)C(=O)N1C[C@H]2[C@@H]([C@H]1C(=O)N[C@H](C#N)C[C@@H]1CCNC1=O)C2(C)C [Compound 146]	7.10		pEC50 ([1]; read-out: Replicon EC50): 7.07
CC(C)(C)[C@H](NC(=O)CC12CC(C(F)(F)F)(C1)C2)C(=O)N1C[C@H]2[C@@H]([C@H]1C(=O)N[C@H](C#N)C[C@@H]1CCNC1=O)C2(C)C [Compound 68]	5.72		
CC(C)(C)OC(=O)N(C(=O)N1C[C@H]2[C@@H]([C@H]1C(=O)N[C@H](C#N)C[C@@H]1CCNC1=O)C2(C)C)[C@@H]1C[C@H]1C(F)F [Compound 60]	< 4.52		
CC(C)(C)[C@H](NS(=O)(=O)c1ccc(C(F)(F)F)cc1)C(=O)N1C[C@H]2[C@@H]([C@H]1C(=O)N[C@H](C#N)C[C@@H]1CCNC1=O)C2(C)C [Compound 44]			pEC50 ([1]; read-out: Replicon EC50): < 4.52
C=C(F)C(=O)N[C@H](C(=O)N1C[C@H]2[C@@H]([C@H]1C(=O)N[C@H](C#N)C[C@@H]1CCNC1=O)C2(C)C)C(C)(C)C [Compound 66]		5.97	pEC50 [2]: 5.85
CC(C)(C)[C@H](NC(=O)C(Cl)(Cl)C(F)(F)F)C(=O)N1C[C@H]2[C@@H]([C@H]1C(=O)N[C@H](C#N)C[C@@H]1CCNC1=O)C2(C)C [Compound 71]		6.52	pEC50 [2]: 6.49
CC(C)(C)[C@H](NS(=O)(=O)c1cccnc1)C(=O)N1C[C@H]2[C@@H]([C@H]1C(=O)N[C@H](C#N)C[C@@H]1CCNC1=O)C2(C)C [Compound 93]		5.51	pEC50 [2]: 5.36
CC(C)(C)[C@H](NC(=O)CS(C)(=O)=O)C(=O)N1C[C@H]2[C@@H]([C@H]1C(=O)N[C@H](C#N)C[C@@H]1CCNC1=O)C2(C)C [Compound 64]	6.00		
CC(C)(C)[C@H](NS(=O)(=O)c1ccc(F)s1)C(=O)N1C[C@H]2[C@@H]([C@H]1C(=O)N[C@H](C#N)C[C@@H]1CCNC1=O)C2(C)C [Compound 113]		6.41	
COC1(CC(=O)N[C@H](C(=O)N2C[C@H]3[C@@H]([C@H]2C(=O)N[C@H](C#N)C[C@@H]2CCNC2=O)C3(C)C)C(C)(C)C)CCC1 [Compound 67]	< 4.52		
CC(C)(C)[C@H](NS(=O)(=O)c1ccsc1)C(=O)N1C[C@H]2[C@@H]([C@H]1C(=O)N[C@H](C#N)C[C@@H]1CCNC1=O)C2(C)C [Compound 139]	6.85		pEC50 ([1]; read-out: Replicon EC50): 6.80
CC(C)(C)[C@H](NC(=O)c1cccc(S(F)(F)(F)(F)F)c1)C(=O)N1C[C@H]2[C@@H]([C@H]1C(=O)N[C@H](C#N)C[C@@H]1CCNC1=O)C2(C)C [Compound 145]	5.40		pEC50 ([1]; read-out: Replicon EC50): 5.40
CCN([C@H](C(=O)N1C[C@H]2[C@@H]([C@H]1C(=O)N[C@H](C#N)C[C@@H]1CCNC1=O)C2(C)C)C(C)(C)C)S(=O)(=O)c1ccc(OC)cc1 [Compound 153]	5.68		
CN([C@H](C(=O)N1C[C@H]2[C@@H]([C@H]1C(=O)N[C@H](C#N)C[C@@H]1CCNC1=O)C2(C)C)C(C)(C)C)S(=O)(=O)c1ccc(Cl)s1 [Compound 155]	< 5.00		
CN([C@H](C(=O)N1C[C@H]2[C@@H]([C@H]1C(=O)N[C@H](C#N)C[C@@H]1CCNC1=O)C2(C)C)C(C)(C)C)S(=O)(=O)c1cccc2ccccc12 [Compound 156]	5.85		

Compound	pEC50 [1, 3]	pEC50 [2, 4]	other results
Cc1ccc(S(=O)(=O)N[C@H](C(=O)N2C[C@H]3[C@@H]([C@H]2C(=O)N[C@H](C#N)C[C@@H]2CCNC2=O)C3(C)C)C(C)(C)C)cc1 [Compound 96]		6.61	pEC50 [2]: 6.47
Cc1csc(S(=O)(=O)N[C@H](C(=O)N2C[C@H]3[C@@H]([C@H]2C(=O)N[C@H](C#N)C[C@@H]2CCNC2=O)C3(C)C)C(C)(C)C)c1 [Compound 112]	7.21		pEC50 ([1]; read-out: Replicon EC50): 7.07
CNC(=S)N[C@H](C(=O)N1C[C@H]2[C@@H]([C@H]1C(=O)N[C@H](C#N)C[C@@H]1CCNC1=O)C2(C)C)C(C)(C)C [Compound 35]		5.30	
CC(C)(C)[C@H](NS(=O)(=O)c1ccc2ccccc2c1)C(=O)N1C[C@H]2[C@@H]([C@H]1C(=O)N[C@H](C#N)C[C@@H]1CCNC1=O)C2(C)C [Compound 102]		7.08	pEC50 [2]: 6.90
CNC(C)(C)C(=O)N[C@H](C(=O)N1C[C@H]2[C@@H]([C@H]1C(=O)N[C@H](C#N)C[C@@H]1CCNC1=O)C2(C)C)C(C)(C)C [Compound 59]	4.79		
COC12CCC(C(=O)N[C@H](C(=O)N3C[C@H]4[C@@H]([C@H]3C(=O)N[C@H](C#N)C[C@@H]3CCNC3=O)C4(C)C)C(C)(C)C)(CC1)CC2 [Compound 69]	4.99		
CC(C)(C)[C@H](NS(=O)(=O)c1cccc2ccccc12)C(=O)N1C[C@H]2[C@@H]([C@H]1C(=O)N[C@H](C#N)C[C@@H]1CCNC1=O)C2(C)C [Compound 85]		6.62	pEC50 [2]: 6.43
CN1CCCC1C(=O)N[C@H](C(=O)N1C[C@H]2[C@@H]([C@H]1C(=O)N[C@H](C#N)C[C@@H]1CCNC1=O)C2(C)C)C(C)(C)C (stereo partly drawn) [Compound 58]	5.33		
CC(C)(C)[C@H](NS(=O)(=O)c1ccc(C2CC2)cc1)C(=O)N1C[C@H]2[C@@H]([C@H]1C(=O)N[C@H](C#N)C[C@@H]1CCNC1=O)C2(C)C [Compound 121]		7.25	pEC50 [2]: 7.18
Cc1cc(C)c(S(=O)(=O)N[C@H](C(=O)N2C[C@H]3[C@@H]([C@H]2C(=O)N[C@H](C#N)C[C@@H]2CCNC2=O)C3(C)C)C(C)(C)C)c(C)c1 [Compound 152]	7.19		
CC(C)(C)[C@H](NC(=O)CC(C(F)(F)F)C(F)(F)F)C(=O)N1C[C@H]2[C@@H]([C@H]1C(=O)N[C@H](C#N)C[C@@H]1CCNC1=O)C2(C)C [Compound 149]	6.62		
CC(C)(C)[C@H](NC(=O)Cc1ccc2c(c1)CCC2)C(=O)N1C[C@H]2[C@@H]([C@H]1C(=O)N[C@H](C#N)C[C@@H]1CCNC1=O)C2(C)C [Compound 82]		6.35	pEC50 [2]: 6.29
CC(C)(C)[C@H](NC(=O)C1CC2(CCC2)C1)C(=O)N1C[C@H]2[C@@H]([C@H]1C(=O)N[C@H](C#N)C[C@@H]1CCNC1=O)C2(C)C [Compound 63]	6.14		
Cc1c(S(=O)(=O)N[C@H](C(=O)N2C[C@H]3[C@@H]([C@H]2C(=O)N[C@H](C#N)C[C@@H]2CCNC2=O)C3(C)C)C(C)(C)C)sc2ccc(F)cc12 [Compound 148]	7.80		
CC(C)(C)[C@H](NC(=S)Nc1cccc(C(F)(F)F)c1)C(=O)N1C[C@H]2[C@@H]([C@H]1C(=O)N[C@H](C#N)C[C@@H]1CCNC1=O)C2(C)C [Compound 52]	6.39		
CC(C)(C)NC(=S)N[C@H](C(=O)N1C[C@H]2[C@@H]([C@H]1C(=O)N[C@H](C#N)C[C@@H]1CCNC1=O)C2(C)C)C(C)(C)C [Compound 56]			pEC50 ([1]; Severe acute respiratory syndrome coronavirus 2, Huh-7, 24 h, read-out: Replicon EC50): 6.43
CC(C)(C)[C@H](NS(=O)(=O)N1CC2CC1C2)C(=O)N1C[C@H]2[C@@H]([C@H]1C(=O)N[C@H](C#N)C[C@@H]1CCNC1=O)C2(C)C [Compound 62]	5.83		
C#CCC(=O)N[C@H](C(=O)N1C[C@H]2[C@@H]([C@H]1C(=O)N[C@H](C#N)C[C@@H]1CCNC1=O)C2(C)C)C(C)(C)C [Compound 136]	6.52		pEC50 ([1]; read-out: Replicon EC50): 6.49 and 6.38 and 6.27
CN([C@H](C(=O)N1C[C@H]2[C@@H]([C@H]1C(=O)N[C@H](C#N)C[C@@H]1CCNC1=O)C2(C)C)C(C)(C)C)S(=O)(=O)c1ccc2ccccc2c1 [Compound 150]	5.54		
CC(C)(C)[C@H](NC(=O)C(F)(F)OCC(F)(F)F)C(=O)N1C[C@H]2[C@@H]([C@H]1C(=O)N[C@H](C#N)C[C@@H]1CCNC1=O)C2(C)C [Compound 144]	6.96		pEC50 ([1]; read-out: Replicon EC50): 6.74
CC(C)(C)[C@H](NC(=O)c1ccc(S(F)(F)(F)(F)F)cc1)C(=O)N1C[C@H]2[C@@H]([C@H]1C(=O)N[C@H](C#N)C[C@@H]1CCNC1=O)C2(C)C [Compound 147]	< 5.00		
